Columns and labels:
[1] = AD patients; cited from earlier work
[2] = Clinical safety / cardiotoxicity of LMTM; type: in vivo, human
Procedure: Therefore, doses up to 250 mg/day could be given safely for treatment of COVID-19 patients.

mitochondrial function = settings: in vitro and in vivo; cited from earlier work
[3] = Oxygen saturation and metHb in clinical trial patients after LMT dosing; type: in vivo, human
Procedure: The present inventors have used data available for patients participating in clinical trials to determine whether LMT enhances oxygen saturation of blood. Data were available for 18 subjects with oxygen saturation <94% at baseline (lower limit of normal range is 95%). Oxygen saturation levels were compared pre-dose and after 4 hrs in the clinic following administration of a single doses of LMT at 4 mg and ˜100mg (mean of 75, 100, 125 mg; FIG. 8).
In order to understand this effect further the inventors investigated whether the low oxygen saturation in these patients is due to elevation in metHb levels. There was no difference in metHb levels at baseline between subjects with low SpO2 and those with SpO2 levels in the normal range.

SARS-CoV2 = assay: Virucidal activity / neutralising viral toxicity in Vero-E6 cell assay in the dark (Cagno et al 2020 data); type: cell-based
[4] = set-up: species or system rats; settings: rat, in vivo, po, 10 mg/kg
Procedure: A further whole body autoradiography study rats compared the distribution of LMT-associated radioactivity in brain, lung and heart following oral dosing at 10 mg/kg. […] The ratio specific for LMT in lung is therefore unknown. It is possible to relate plasma levels determined in a large clinical population (Schelter et al., 2019) to expected tissue levels of LMT at steady state across a wide dosing range of 8-250 mg/day. However, this depends critically on the tissue:plasma ratio for specifically affected tissues such a lung.

SARS-CoV-2 = settings: Vero cells, 48 hrs; read-out: IC50, SARS-CoV-2 antiviral activity (viral replication); cited from earlier work

For `CN(C)c1ccc2c(c1)Sc1cc(N(C)C)ccc1N2.CS(=O)(=O)O.CS(=O)(=O)O` [LMTM, N,N,N′,N′-tetramethyl-10H-phenothiazine-3,7-diaminium bis(hydromethanesulfonate)], the “minimum effective dose (anti-dementia effects)” value [1] is given as 8 mg/day, the “optimally effective dose (anti-dementia effects)” value [1] is given as 16 mg/day and the safety across doses ([2]; 8-250 mg/day, three Phase 3 trials in over 2,000 patients with dementia) is given as “well established”. For the same compound, the cardiotoxicity ([2]; human, in vivo) was “does not have the cardiotoxicity”, the mitochondrial function (mitochondrial function) was “enhance mitochondrial function” and the metHb levels ([3]; higher doses, over a period of time) was “systematically increases metHb levels”. The “oxygen saturation of blood” value ([3]; subjects with oxygen saturation <94% at baseline, 4 hours after single dose of LMT at 4 mg and ~100 mg) was “significantly increased oxygen saturation”.
With methylthionine [MT moiety] the IC50 (SARS-CoV2; Vero cell assay, 20 hrs, calculated from Cagno et al. data) was 32 nM.
For `CN(C)c1ccc2c(c1)Sc1cc(N(C)C)ccc1N2` [LMT, hydromethylthionine], the “ratio of heart and lung to brain (LMT-associated radioactivity, total MT)” value [4] was 2:1 and the “potency as SARS-CoV-2 antiviral relative to hydroxychloroquine and remdesivir” value (SARS-CoV2; assuming comparability of the assays) was “approximately 23 fold”.
For `CCN(CCO)CCCC(C)Nc1ccnc2cc(Cl)ccc12` (centres unmarked) [hydroxychloroquine], the IC50 (SARS-CoV-2) is listed as 720 nM.

— patent US20230165875A1, “METHYLTHIONINIUM COMPOUNDS FOR USE IN THE TREATMENT OF COVID-19” (priority 2020, published 2023)
